Test results taken from publication PMC6887851, “A Chemical-Intervention Strategy To Circumvent Peptide Hydrolysis by D-Stereoselective Peptidases” (Journal of Medicinal Chemistry, 2019).
Where a SMILES comes first, the peptide text is derived from it. [ ]: non-standard residue; d: D form. The star is where a group is joined. dDab = NCC[C@@H](N)C(=O)O; Octanoyl = CCCCCCCC(=O)*; Dab = NCC[C@H](N)C(=O)O

Legend:
S. aureus NCTC 10788 = type: cell-based, Staphylococcus aureus; conditions: NCTC 10788, 18 h
Protocol: (§1) Minimum inhibitory concentrations (MICs) were determined according to Clinical and Standards Laboratory Institute (CLSI) guidelines. Briefly, peptides were dissolved in Muller–Hinton broth (MHB) and serial dilutions made across a 96-well plate. Each well was inoculated with a suspension of the required bacterial strain to reach a final inoculum of 5 × 10^5 colony forming units per mL. The MIC was taken as the lowest concentration with no visible (cloudy suspension) growth after 18 h. The antimicrobial activity of each peptide was determined in duplicate in three independent experiments and found to be consistent across all experiments.

[1] = test system: TriFpep (peptidase domain of D-peptidase TriF); assay: Peptide hydrolysis assay with TriFpep (UPLC–MS cleavage ratio); type: in vitro ADME, Paenibacillus polymyxa CICC10580; conditions: Paenibacillus polymyxa; TriFpep 200 nM, substrate 50 μM, 25% PBS buffer pH 7.4, 37 °C, end-point after 24 h incubation, cleavage ratio by UPLC–MS, two independent experiments
Protocol: Having determined that N- or α-methylation of position 9 in the tridecaptins substantially improves resistance to hydrolysis by BogQ, we next tested if modifying the 6 position could overcome TriF hydrolysis at D-Trp5. TriFpep, the soluble periplasmic peptidase domain of TriF, was used in these assays. […] Oct-TriA2(6-Sar) (20) and Oct-TriA2(6-Aib) (21) were synthesized and found to be completely resistant to TriF and retain strong activity (3.13 μg/mL) against E. coli. […] Discovering that a simple substitution of Ser6 with Sar or Aib provides complete TriF resistance with negligible loss in activity is a welcome development.
For expression of D-peptidases, the recombinant strain E. coli BL21 carrying pET-28a-bogQ or pET-24a-triFpep was cultured overnight at 37 °C in LB medium. This was diluted 1:100 into 100 mL of LB medium containing 50 μg/mL kanamycin and incubated at 37 °C until OD600 = 0.4–0.6 was reached. The culture was incubated at 15 °C for 30 min, and isopropyl β-D-1-thiogalactopyranoside was added to a final concentration of 200 μM.[17] The target proteins purified using Ni-NTA purification. The assay mixture (total volume 30 μL in 25% PBS buffer, pH 7.4), containing purified protein (BogQ, 20 nM or TriFpep 200 nM) and synthetic analogues (50 μM), was incubated for 1 h (BogQ) or 24 h (TriFpep) at 37 °C. […]

E. coli NCTC 12241 = type: cell-based, Escherichia coli; conditions: NCTC 12241, 18 h
Protocol: as §1

D-peptidase BogQ = assay: Peptide hydrolysis assay with BogQ (UPLC–MS cleavage ratio); type: in vitro ADME; conditions: BogQ 20 nM, substrate 50 μM, 25% PBS buffer pH 7.4, 37 °C, end-point after 1 h incubation, cleavage ratio by UPLC–MS, two independent experiments
Protocol: For expression of D-peptidases, the recombinant strain E. coli BL21 carrying pET-28a-bogQ or pET-24a-triFpep was cultured overnight at 37 °C in LB medium. This was diluted 1:100 into 100 mL of LB medium containing 50 μg/mL kanamycin and incubated at 37 °C until OD600 = 0.4–0.6 was reached. The culture was incubated at 15 °C for 30 min, and isopropyl β-D-1-thiogalactopyranoside was added to a final concentration of 200 μM.[17] The target proteins purified using Ni-NTA purification. The assay mixture (total volume 30 μL in 25% PBS buffer, pH 7.4), containing purified protein (BogQ, 20 nM or TriFpep 200 nM) and synthetic analogues (50 μM), was incubated for 1 h (BogQ) or 24 h (TriFpep) at 37 °C. Reactions were quenched with three volumes of cold methanol (90 μL) and centrifuged at 15 000 rpm for 10 min to precipitate protein. The supernatant (2 μL) was subjected to UPLC–MS analysis for the determination of cleavage ratios.[17] Assays were repeated in two independent experiments and results consistent across both.

Structure (SMILES) | MIC (μg/mL) Sa (S. aureus NCTC 10788) [µg/mL] | metabolised at 24 h [1] [%] | MIC (μg/mL) Ec (E. coli NCTC 12241) [µg/mL] | metabolised at 1 h, 50 μM (D-peptidase BogQ) [%]
CCCCCCCC(=O)N[C@@H](C(=O)N[C@@H](CCN)C(=O)NCC(=O)N[C@H](CO)C(=O)N[C@H](Cc1c[nH]c2ccccc12)C(=O)N[C@@H](CO)C(=O)N[C@@H](CCN)C(=O)N[C@H](CCN)C(=O)N[C@@H](Cc1ccccc1)C(=O)N[C@@H](CCC(=O)O)C(=O)N[C@H](C(=O)N[C@@H](C(=O)N[C@@H](C)C(=O)O)C(C)C)C(C)C)C(C)C [compound 14, Oct-TriA2 (2-Dab)] (Octanoyl-[dV][Dab]G[dS][dW]S[Dab][dDab]FEV[dV]A-OH) | >50 | – | – | –
CCCCCCCC(=O)N[C@@H](C(=O)N[C@H](CCN)C(=O)NCC(=O)N[C@H](CO)C(=O)N[C@H](Cc1c[nH]c2ccccc12)C(=O)N(C)CC(=O)N[C@@H](CCN)C(=O)N[C@H](CCN)C(=O)NC(C)(Cc1ccccc1)C(=O)N[C@@H](CCC(=O)O)C(=O)N[C@H](C(=O)N[C@@H](C(=O)N[C@@H](C)C(=O)O)[C@@H](C)CC)C(C)C)C(C)C (some centres unmarked) [compound 25, Oct-TriA2 (6-Sar, 9-αMePhe)] | >50 | 0 | >50 | 40
CCCCCCCC(=O)N[C@@H](C(=O)N[C@H](CCN)C(=O)NCC(=O)N[C@H](CO)C(=O)N[C@H](Cc1c[nH]c2ccccc12)C(=O)N[C@@H](CO)C(=O)N[C@@H](CCN)C(=O)N[C@H](CCN)C(=O)NC(C)(Cc1ccccc1)C(=O)N[C@@H](CCC(=O)O)C(=O)N[C@H](C(=O)N[C@@H](C(=O)N[C@@H](C)C(=O)O)C(C)C)C(C)C)C(C)C (some centres unmarked) [compound 16, Oct-TriA2 (9-αMePhe)] | >50 | – | – | 39
CCCCCCCC(=O)N[C@@H](C(=O)N[C@H](CCN)C(=O)NCC(=O)N[C@H](CO)C(=O)N[C@H](Cc1c[nH]c2ccccc12)C(=O)N(C)CC(=O)N[C@@H](CCN)C(=O)N[C@H](CCN)C(=O)NC(C)(Cc1ccccc1)C(=O)N[C@@H](CCC(=O)O)C(=O)N[C@H](C(=O)N[C@@H](C(=O)N[C@@H](C)C(=O)O)C(C)C)C(C)C)C(C)C (some centres unmarked) [compound 23, Oct-TriA2 (6-Sar, 9-αMePhe)] | >50 | 0 | >50 | 39
